Consider 14 compounds from patent US9056099B2, “Compositions and methods for treating viral diseases” (NovaDrug, LLC, priority 2010, dated 2015).

This test concerns HCV (JFH-1) in Huh7-1 cells. As to the kind of experiment: Assay for anti-HCV efficacy: JFH-1 HCV infection of Huh7-1 cultures, intracellular HCV RNA by RT-qPCR. The settings on record: Compound Example 2 series; % viral titer at 5 μM or 15 μM; HCV-infected Huh7-1 cultures. The class given is cell-based, Hepatitis C virus. An excerpt: In the past, HCV studies involved mainly infected patients and chimpanzees. Recently, a robust HCV infection system was developed with cells derived from the Huh-7 human hepatoma cell line (see, for example, Yu et al., “Development of a cell-based hepatitis C virus infection fluorescent resonance energy transfer assay for high-throughput antiviral compound screening” Antimicrob Agents Chemother. 2009 53:4311-4319 for additional details regarding growing virus stocks, maintenance of the Huh-7 cells, infection parameters, and HCV titers determinations; and Yu & Uprichard “Cell-based hepatitis C virus infection fluorescence resonance energy transfer (FRET) assay for antiviral compound screening” Curr Protoc Microbiol. 2010; Chapter 17: Unit 17.5). Briefly, the assay is based on the unique JFH-1 HCV consensus cDNA derived from an HCV patient. Using reverse genetics, the infectious virus can be rescued from this HCV clone. The recovered viable JFH virus can be passaged serially in Huh-7 cells. For this reason, this system is amenable for testing the activity of potential drugs for their anti-HCV efficacy. The antiviral activity of the compounds described herein is tested in this system.
Initially, 6×10^3 Huh7-1 cells are incubated overnight in each well of collagen-coated BioCoat 96-well plates (BD Biosciences, Bedford, Mass.) in 0.2 mL 10% Medium composed of Dulbecco's modified Eagle's medium supplemented with 10% fetal bovine serum. Subsequently, at 2 day intervals, the cultures are replenished with fresh 0.2 mL 10% Medium. Once the cultures become confluent, they are continually replenished at 2 day intervals with fresh 0.2 mL 10% Medium that also includes 1% dimethyl sulfoxide (DMSO). After 20 days of these replenishments, the Huh7-1 cultures are incubated with fresh 1% Medium (same as 10% Medium except that the serum level is 1%) containing HCV at a multiplicity of infection (MOI) of 0.05 focus forming units (ffu)/cell. The HCV (JFH-1wt Huh7) stock titer is 1.5×10^5 ffu/mL. The next day (day 1 post-infection) and 2 days later (day 3 post-infection) the media are replenished with fresh 1% Medium containing the test compounds dissolved in DMSO. On the 5th day of treatment with the compounds, cell lysates are collected for RNA isolation and Real Time-quantitative Reverse Transcription Polymerase Chain Reaction (RT-qPCR) and culture media are collected for cytotoxicity analysis.
Total RNA is isolated from cells by the guanidine thiocyanate method using standard protocols. One μg RNA is used for cDNA synthesis using TaqMan reverse transcription reagents (Applied Biosystems, Foster City, Calif.) followed by real-time PCR using an Applied Biosystems 7300 real-time thermocycler. Illustrative thermal cycling consists of initial denaturation of 10 min at 95° C. followed by 40 cycles of denaturation (15 s at 95° C.) and annealing/extension (1 m at 60° C.). HCV and human glyceraldehyde-3-phosphate dehydrogenase (GAPDH) RNA levels are determined relative to a standard curve of serial dilutions of plasmid containing JFH-1 HCV or GAPDH cDNA. The PCR primers used to detect GAPDH and HCV are illustratively: GAPDH (NMX002046) 5′-GAAGGTGAAGGTCGGAGTC-3′ (SEQ ID NO: 5) (sense) and 5′-[…]-3′ (SEQ ID NO: 6) (anti-sense) JFH-1 HCV (AB047639) 5′-TCTGCGGAACCGGTGAGTA-3′ (SEQ ID NO: 7) (sense) and 5′-TCAGGCAGTACCACAAGGC-3′ (SEQ ID NO: 8) (anti-sense).
FIGS. 1-7 illustrate the intracellular HCV RNA levels when cultures are incubated with the selected test compounds at the doses shown. When HCV RNA levels are compared among the samples, the data may indicate that the compounds cause a dose dependent decrease in HCV RNA levels relative to the mock-treated (no compound added) HCV infected control.
A general note: In qPCR the cycle at which signal appears reflects the starting amount.
With `Cc1nn(C)cc1CN1CC[C@H]2[C@@H](C1)[C@H](c1ccc(F)cc1)CN2C(=O)c1cccnc1`, the “Activity (viral titer)” value is “− (>60% viral titer at 15 μM (highest concentration tested))”.
Then `O=C(c1cccnc1)N1CC(c2ccc(F)cc2)C2CN(Cc3cccc(F)c3)CCC21` (centres unmarked), with “− (>60% viral titer at 15 μM (highest concentration tested))”.
In the case of `Cc1ccccc1CN1CC[C@H]2[C@@H](C1)[C@H](c1ccsc1)CN2C(=O)c1ccc(F)cc1`, the “Activity (viral titer)” value was “− (>60% viral titer at 15 μM (highest concentration tested))”.
As for `O=C(c1ccc(F)cc1)N1CC(c2ccsc2)C2CN(Cc3ccccn3)CCC21` (centres unmarked), the “Activity (viral titer)” value is “− (>60% viral titer at 15 μM (highest concentration tested))”.
Consider `O=C(c1ccc(F)cc1)N1C[C@@H](c2ccsc2)[C@@H]2CN(Cc3cccc(F)c3)CC[C@@H]21`, for which the “Activity (viral titer)” value is “− (>60% viral titer at 15 μM (highest concentration tested))”.
The result for `O=C(c1ccncc1)N1C[C@@H](c2ccc(F)cc2)[C@@H]2CN(Cc3ccccc3Cl)CC[C@@H]21` reads “+++ (≦30% viral titer at 5 μM)”; that for `O=C(c1ccncc1)N1CC(c2ccc(F)cc2)C2CN(Cc3ccccc3F)CCC21` (centres unmarked), “− (>60% viral titer at 15 μM (highest concentration tested))”; that for `Cc1ccccc1CN1CCC2C(C1)C(c1ccc(F)cc1)CN2C(=O)c1ccncc1` (centres unmarked), “− (>60% viral titer at 15 μM (highest concentration tested))”.
With `O=C(c1ccncc1)N1C[C@@H](c2ccc(F)cc2)[C@@H]2CN(Cc3ccccn3)CC[C@@H]21`, the “Activity (viral titer)” value is recorded as “− (>60% viral titer at 15 μM (highest concentration tested))”.
For `O=C(c1ccncc1)N1CC(c2ccc(F)cc2)C2CN(Cc3cccc(F)c3)CCC21` (centres unmarked), the “Activity (viral titer)” value is reported as “− (>60% viral titer at 15 μM (highest concentration tested))”.
Then `O=C(c1ccncc1)N1CC(c2ccc(F)cc2)C2CN(Cc3ccncc3)CCC21` (centres unmarked), with “− (>60% viral titer at 15 μM (highest concentration tested))”; and `O=C(c1ccncc1)N1CC(c2ccc(F)cc2)C2CN(Cc3ccccc3)CCC21` (centres unmarked), with “− (>60% viral titer at 15 μM (highest concentration tested))”.
In the case of `O=C(c1ccccc1)N1C[C@@H](c2ccsc2)[C@@H]2CN(Cc3ccc(F)cc3)CC[C@@H]21`, the “Activity (viral titer)” value was “++ (≦60% viral titer at 5 μM)”.
Turning to `O=C(c1ccccc1)N1CC(c2ccsc2)C2CN(Cc3ccccc3)CCC21` (centres unmarked), the “Activity (viral titer)” value is reported as “++ (≦60% viral titer at 5 μM)”.
